Experimental data: BindingDB's records for doi:10.7270/Q2X34VWJ (Nmmlsc, 2009)

Molecular target: Ras-related protein Rab-7a (Canis lupus familiaris, UniProt P18067)
Assay: extra analogs blocking nucleotide binding to Rab7 – biochemical, additional analogs, wildtype, multiplex bead flow cytometry, SAR follow-up (AID 2036)
[1] = inactive by the depositor's call

Ras-related protein Rab-7a, sequence (P18067 whole entry): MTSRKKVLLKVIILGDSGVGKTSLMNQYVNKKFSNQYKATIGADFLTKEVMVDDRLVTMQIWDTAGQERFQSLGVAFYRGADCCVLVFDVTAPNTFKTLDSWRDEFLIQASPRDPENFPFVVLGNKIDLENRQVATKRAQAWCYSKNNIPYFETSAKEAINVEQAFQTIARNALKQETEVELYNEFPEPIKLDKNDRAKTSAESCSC

## O=C1Nc2ccc(Br)cc2C1=C1Nc2ccccc2C1=O
  EC50: 30 µM

## O=C1N=c2c(F)cccc2=C1c1[nH]c2ccccc2c1NO [7-fluoro-3-[3-(hydroxyamino)-1H-indol-2-yl]-2-indolone]
  EC50: 30 µM

## CC(=O)Oc1ccccc1C(=O)O [2-(acetyloxy)benzoic acid]
[1]
  EC50: 30 µM

## N#Cc1c(-c2ccc(Cl)cc2)c(C(=O)c2ccccc2)n(S(=O)(=O)c2ccc([N+](=O)[O-])cc2)c1N [UNM-0000305780]
[1]
  EC50: 30 µM

## COc1ccc(-c2c(C#N)c(N)n(S(C)(=O)=O)c2C(=O)c2ccccc2)cc1Br [2-azanyl-4-(3-bromanyl-4-methoxy-phenyl)-1-methylsulfonyl-5-(phenylcarbonyl)pyrrole-3-carbonitrile]
[1]
  EC50: 30 µM

## O=C1NC(=S)N/C1=C1\C(=O)Nc2ccccc21 [(3Z)-3-(5-oxo-2-sulfanylideneimidazolidin-4-ylidene)-1H-indol-2-one]
  EC50: 13.4 µM

## O=C(C#Cc1ccccc1)c1ccccc1[N+](=O)[O-] [UNM-0000306038]
[1]
  EC50: 30 µM

## O=C(C#Cc1ccccc1)c1ccc(F)cc1 [UNM-0000306059]
[1]
  EC50: 30 µM

## C[C@@H](C(=O)O)c1cccc(Oc2ccccc2)c1 [calcium;2-(3-phenoxyphenyl)propanoic acid;hydrate]
  EC50: 30 µM

## O=C1Nc2c(Br)cccc2C1=C1Nc2ccccc2C1=O
  EC50: 30 µM

## N#Cc1ccc(C(=O)C#Cc2ccccc2)cc1 [4-(3-phenylprop-2-ynoyl)benzenecarbonitrile]
[1]
  EC50: 30 µM

## O=C1N=c2ccc(Br)cc2=C1c1[nH]c2ccccc2c1NO [5-bromanyl-3-[3-(oxidanylamino)-1H-indol-2-yl]indol-2-one]
  EC50: 30 µM

## O=C1Nc2c(F)cccc2C1=C1Nc2ccccc2C1=O
  EC50: 23.8 µM

## O=C1N=c2c(Br)cccc2=C1c1[nH]c2ccccc2c1NO [7-bromanyl-3-[3-(oxidanylamino)-1H-indol-2-yl]indol-2-one]
  EC50: 30 µM

## COc1ccc(C(=O)C#Cc2ccccc2)cc1 [1-(4-methoxyphenyl)-3-phenyl-2-propyn-1-one]
[1]
  EC50: 30 µM

## O=C1Nc2ccccc2/C1=C1/Nc2ccccc2C1=O [2-[(3Z)-2-oxo-2,3-dihydro-1H-indol-3-ylidene]-2,3-dihydro-1H-indol-3-one]
  EC50: 30 µM

## COc1cc(-c2c(C#N)c(N)n(S(=O)(=O)c3c(C(C)C)cc(C(C)C)cc3C(C)C)c2C(=O)c2ccccc2)cc(OC)c1OC [2-azanyl-5-(phenylcarbonyl)-4-(3,4,5-trimethoxyphenyl)-1-[2,4,6-tri(propan-2-yl)phenyl]sulfonyl-pyrrole-3-carbonitrile]
[1]
  EC50: 33.2 µM

## O=C(C#Cc1ccccc1)c1ccc([N+](=O)[O-])cc1 [1-(4-nitrophenyl)-3-phenyl-2-propyn-1-one]
[1]
  EC50: 30 µM

## COC(=O)c1ccc(C(=O)C#Cc2ccccc2)cc1 [4-(1-oxo-3-phenylprop-2-ynyl)benzoic acid methyl ester]
[1]
  EC50: 30 µM

## COc1ccc(S(=O)(=O)n2c(N)c(C#N)c(-c3ccccc3)c2C(=O)c2ccc(Br)cc2)cc1
[1]
  EC50: 30 µM

## COc1ccc(S(=O)(=O)n2c(N)c(C#N)c(-c3cc(Br)c(OC)c(OC)c3)c2C(=O)c2ccccc2)cc1 [UNM-0000305782]
[1]
  EC50: 30 µM

## O=C1Nc2cccc(Br)c2/C1=C1/Cc2ccccc2C1=O
[1]
  EC50: 30 µM

## O=C(C#Cc1ccccc1)c1ccc(Cl)cc1 [UNM-0000306055]
[1]
  EC50: 30 µM

## COc1ccc2cc(CC(=O)O)ccc2c1 [2-(6-methoxynaphthalen-2-yl)ethanoic acid]
[1]
  EC50: 30 µM

## O=C1NC(=O)/C(=C2/C(=O)Nc3ccccc32)N1
  EC50: 30 µM

## O=[N+]([O-])c1ccc(C#Cc2ccccc2)cc1
[1]
  EC50: 30 µM

## O=C(C#Cc1ccccc1)c1cccnc1 [3-phenyl-1-pyridin-3-ylprop-2-yn-1-one]
[1]
  EC50: 30 µM

## O=C(C#Cc1ccccc1)c1ccc(OC(F)(F)F)cc1
[1]
  EC50: 30 µM

## O=C1Nc2c(Cl)cccc2C1=C1Nc2ccccc2C1=O
  EC50: 0.024 µM

## O=C1N=c2c(Cl)cccc2=C1c1[nH]c2ccccc2c1NO [7-chloro-3-[3-(hydroxyamino)-1H-indol-2-yl]-2-indolone]
  EC50: 30 µM

## O=C(C#Cc1ccccc1)c1ccccc1 [UNM-0000306039]
[1]
  EC50: 30 µM

## CC(C(=O)O)c1cccc(C(=O)c2ccccc2)c1 (stereo not given) [2-(3-benzoylphenyl)propanoic acid]
[1]
  EC50: 30 µM

## CCCCS(=O)(=O)n1c(N)c(C#N)c(-c2cc(OC)c(OC)c(OC)c2)c1C(=O)c1ccccc1 [2-amino-5-benzoyl-1-butylsulfonyl-4-(3,4,5-trimethoxyphenyl)-3-pyrrolecarbonitrile]
[1]
  EC50: 30 µM

## COc1ccc(S(=O)(=O)n2c(N)c(C#N)c(-c3cncc(Br)c3)c2C(=O)c2ccccc2)cc1 [2-amino-5-benzoyl-4-(5-bromo-3-pyridinyl)-1-(4-methoxyphenyl)sulfonyl-3-pyrrolecarbonitrile]
[1]
  EC50: 8.24 µM

## CC(C)Cc1ccc([C@H](C)C(=O)O)cc1 [(S)-2-(4-Isobutyl-phenyl)-propionic acid]
[1]
  EC50: 4.78 µM

## CC1=C(CC(=O)O)c2cc(F)ccc2/C1=C/c1ccc([S+](C)[O-])cc1 (stereo not given) [UNM-0000306136]
[1]
  EC50: 30 µM

## CSc1ccc(/C=C2/C(C)=C(CC(=O)O)c3cc(F)ccc32)cc1 [{6-Fluoro-2-methyl-3-[1-(4-methylsulfanyl-phenyl)-meth-(E)-ylidene]-3H-inden-1-yl}-acetic acid]
[1]
  EC50: 41.2 µM

## O=C1Nc2ccccc2/C1=C1/Cc2ccccc2C1=O [UNM-0000305763]
[1]
  EC50: 30 µM

## O=C1N=c2ccccc2=C1c1[nH]c2ccccc2c1NO [3-[3-(hydroxyamino)-1H-indol-2-yl]-2-indolone]
  EC50: 30 µM

## O=C1Nc2c(Br)cccc2/C1=C1/Cc2ccccc2C1=O [(3E)-7-bromo-3-(3-oxo-1H-inden-2-ylidene)-1H-indol-2-one]
[1]
  EC50: 30 µM
